Laboratory results from publication PMC12453121, “The combined effects of tick defensin persulcatusin with conventional antibiotics and antimicrobial proteins/peptides against Staphylococcus aureus” (Microbiology, 2025).
“And” between values parts separate entries of the source, which are not always exact repeats. Equal entries are not always repeated. Where two headings read alike, the source gives them in different places. Where a SMILES comes first, the peptide text is derived from it. Bridges are numbered along the chain shown (N, C = ends). Where no end group is shown, it is not given here. [ ]: non-standard residue; d: D form. The star is where a group is joined. Ileψ(thiazoline)Cys = CC[C@H](C)[C@H](N)C1=N[C@H](C(=O)*)CS1; dOrn = NCCC[C@@H](N)C(=O)O

Key:
[1] = tested on: S. aureus ATCC 29213; conditions: for combined effect with IP (interpretation of FICI): named agent combined with IP, S. aureus ATCC 29213
Procedure: A checkerboard assay was performed to evaluate the combined effect of IP and conventional antibiotics using the broth microdilution method [3031] with a final inoculum concentration of 5×10^5 c.f.u. ml^−1. Bacterial cells cultured in MHB at 30 °C were suspended in MHB or cation-adjusted MHB (caMHB) for daptomycin treatment. Bacterial suspensions were dispensed into 96-well round polypropylene plates (Watson Bio Lab, Tokyo, Japan) at an inoculum concentration of 5.0×10^5 c.f.u. ml^−1. […] After incubation at 30 °C, the OD of each well was measured using a microplate reader (MTP-310; Corona Electric Co., Ltd., Ibaraki, Japan) at 660 nm (OD660). […] The fractional inhibitory concentration (FIC) was calculated as the MIC of drug A in combination with drug B divided by drug A alone. The FIC index (FICI) was calculated as the sum of each FIC, and the lowest FICI for each combination was interpreted as follows: FICI of <0.5 was defined as synergy, FICI of ≥0.5 but <1 was defined as partial synergy, FICI of ≥1 but <4 was defined as an additive effect or irrelevant and FICI of ≥4 was defined as antagonistic.

[2] = tested on: S. aureus; set-up: method as in PMID 22705395; conditions: cited from earlier work
[3] = tested on: S. aureus ATCC 29213; test: Killing kinetic assay of IP or vancomycin in growth and non-growth states; assay type: cell-based, Staphylococcus aureus; conditions: 30 °C, IP 32 µg/ml or vancomycin 16 µg/ml (8×MIC)
Procedure: To study the antimicrobial effect of IP on S. aureus cells in both the growth and non-growth states, a killing kinetic assay of IP against S. aureus incubated in nutrient medium was performed as per the method described below or in the physiological buffer (PBS). Bacterial cells grown in TSB for ~24 h were adjusted to 1×10^8 c.f.u. ml^−1 in TSB, LB Lennox broth, MHB or PBS with 32 µg ml^−1 IP or 16 µg ml^−1 vancomycin, as control for antibiotic inhibited cell wall biosynthesis via interaction with lipid II, followed by incubation at 30 ℃ for a further 0.5, 1, 2, 4, 6 and 8 h. Bacterial cells were then serially diluted with sterile PBS, plated on TSA and incubated overnight at 37 °C. Colony counts were then determined, and c.f.u. ml^−1 was calculated.

[4] = tested on: S. aureus ATCC 29213; test: Killing kinetic assay of daptomycin with or without IP pretreatment; assay type: cell-based, Staphylococcus aureus; conditions: daptomycin 10 µg/ml (10×MIC), caMHB, 37 °C, no pretreatment; c.f.u. count, triplicate, P<0.05
Procedure: To examine the influence of S. aureus pretreated with IP on the efficacy of daptomycin against bacterial cells, a killing kinetic assay based on a modification of Grein’s method was conducted. Bacterial cells grown in MHB to the exponential growth phase were incubated with 16 µg ml^−1 IP (8×MIC) at 37 °C. Since IP interacts with the cell surface of S. aureus, causing depolarization within 15 min after incubation, the duration of the pretreatment with IP was set to […]. The cells were then centrifuged (5,000 g, 5 min, 25 °C), and the supernatant was discarded to remove IP. Pretreated cells were resuspended in caMHB with or without 10 µg ml^−1 daptomycin (10×MIC) and then incubated at 37 °C for 0, 15, 30, 60 and 120 min. The bacterial cells were then serially diluted with sterile PBS, and each dilution was plated on TSA plates. The colonies were left to incubate at 37 °C and were subsequently counted.

[5] = named agent combined with IP (0.25–16 µg/ml), checkerboard broth microdilution in MHB (caMHB for daptomycin), 5×10^5 c.f.u./ml, 30 °C, no growth = OD660 <0.05, lowest FICI

Compound	combined effect with IP (interpretation of FICI) ([1]; checkerboard)	FICI (fractional inhibitory concentration index) [1, 5]	other results
Lysozyme	Partial synergistic		
CC[C@H](C)[C@H](NC(=O)[C@H](CCCCN)NC(=O)[C@H](CCC(=O)O)NC(=O)[C@H](CCCCN)NC(=O)[C@H](CO)NC(=O)[C@H](CCCCN)NC(=O)[C@H](CCCNC(=N)N)NC(=O)[C@H](Cc1ccccc1)NC(=O)[C@H](Cc1ccccc1)NC(=O)[C@H](CC(=O)O)NC(=O)CNC(=O)[C@H](CC(C)C)NC(=O)[C@@H](N)CC(C)C)C(=O)NCC(=O)N[C@@H](CCCCN)C(=O)N[C@@H](CCC(=O)O)C(=O)N[C@@H](Cc1ccccc1)C(=O)N[C@@H](CCCCN)C(=O)N[C@@H](CCCNC(=N)N)C(=O)N[C@H](C(=O)N[C@H](C(=O)N[C@@H](CCC(N)=O)C(=O)N[C@@H](CCCNC(=N)N)C(=O)N[C@H](C(=O)N[C@@H](CCCCN)C(=O)N[C@@H](CC(=O)O)C(=O)N[C@@H](Cc1ccccc1)C(=O)N[C@@H](CC(C)C)C(=O)N[C@@H](CCCNC(=N)N)C(=O)N[C@@H](CC(N)=O)C(=O)N[C@@H](CC(C)C)C(=O)N[C@H](C(=O)N1CCC[C@H]1C(=O)N[C@@H](CCCNC(=N)N)C(=O)N[C@H](C(=O)N[C@@H](CCC(=O)O)C(=O)N[C@@H](CO)C(=O)O)[C@@H](C)O)C(C)C)[C@@H](C)CC)C(C)C)[C@@H](C)CC [LL-37]	synergistic	0.25	
NC[C@H]1O[C@H](O[C@H]2[C@H](O)[C@@H](O[C@H]3O[C@H](CO)[C@@H](O)[C@H](N)[C@H]3O)[C@H](N)C[C@@H]2N)[C@H](O)[C@@H](O)[C@@H]1O [kanamycin, Kanamycin]	additive or irrelevant	2.0	
areucin-1: antimicrobial peptide isolated from the marine polychaete lugworm Arenicola marina (printed arenicin-1 in b7) (RWCVYAYVRVRGVLVRYRRCW; ends and bridges not checked; cysteine pairing not given here; UniProt Q5SC60 182-202, looked up)			FICI with chloramphenicol ([2]; areucin-1 combined with chloramphenicol against S. aureus): 0.5; FICI with erythromycin ([2]; areucin-1 combined with erythromycin against S. aureus): 0.375
CN[C@H](CC(C)C)C(=O)N[C@H]1C(=O)N[C@@H](CC(N)=O)C(=O)N[C@H]2C(=O)N[C@H]3C(=O)N[C@H](C(=O)N[C@H](C(=O)O)c4cc(O)cc(O)c4-c4cc3ccc4O)[C@H](O)c3ccc(c(Cl)c3)Oc3cc2cc(c3O[C@@H]2O[C@H](CO)[C@@H](O)[C@H](O)[C@H]2O[C@H]2C[C@](C)(N)[C@H](O)[C@H](C)O2)Oc2ccc(cc2Cl)[C@H]1O [vancomycin, Vancomycin]	additive or irrelevant		FICI (fractional inhibitory concentration index) [1]: 2.0; survival rate in the non-growth state ([3]; PBS, 1×10^8 c.f.u./ml, within 0.5 h then constant, % of c.f.u./ml at 0 h, triplicate): no reduction; time after which bactericidal activity / reduction of survival rate appeared in growth cells ([3]; growth state (TSB, LB Lennox or MHB)): 8 h
O=C(N[C@H](CO)[C@H](O)c1ccc([N+](=O)[O-])cc1)C(Cl)Cl [chloramphenicol, Chloramphenicol]	additive or irrelevant	2.0	
Lysostaphin	Partial synergistic	0.75	
CC[C@H](C)[C@H](N)C1=N[C@H](C(=O)N[C@@H](CC(C)C)C(=O)N[C@H](CCC(=O)O)C(=O)N[C@H](C(=O)N[C@H]2CCCCNC(=O)[C@H](CC(N)=O)NC(=O)[C@@H](CC(=O)O)NC(=O)[C@H](Cc3cnc[nH]3)NC(=O)[C@@H](Cc3ccccc3)NC(=O)[C@H]([C@@H](C)CC)NC(=O)[C@@H](CCCN)NC2=O)[C@@H](C)CC)CS1 [bacitracin, Bacitracin] ({Ileψ(thiazoline)Cys}-L[dE]IK[dOrn]I[dF]H[dD]N; lactam 4-C (inferred); N-terminus assumed)	Partial synergistic	0.50	
CCCCCCCCCC(=O)N[C@@H](Cc1c[nH]c2ccccc12)C(=O)N[C@H](CC(N)=O)C(=O)N[C@@H](CC(=O)O)C(=O)N[C@@H]1C(=O)NCC(=O)N[C@@H](CCCN)C(=O)N[C@@H](CC(=O)O)C(=O)N[C@H](C)C(=O)N[C@@H](CC(=O)O)C(=O)NCC(=O)N[C@H](CO)C(=O)N[C@@H]([C@H](C)CC(=O)O)C(=O)N[C@@H](CC(=O)c2ccccc2N)C(=O)O[C@@H]1C [daptomycin, Daptomycin]	additive, irrelevant or antagonistic		time to significant reduction in bacterial cells (bactericidal activity) [4]: ≤ 2 h; FICI (fractional inhibitory concentration index) [1]: exceeded 2.0; MIC in the presence of sublethal concentrations of IP compared with absence of IP ([1]; IP 0.25 to 1 µg/ml for nisin, 0.25 to 4 µg/ml for daptomycin, checkerboard): higher
O=C(O)c1cn(C2CC2)c2cc(N3CCNCC3)c(F)cc2c1=O [ciprofloxacin, Ciprofloxacin]	Partial synergistic		
CN(C)[C@@H]1C(O)=C(C(N)=O)C(=O)[C@@]2(O)C(O)=C3C(=O)c4c(O)cccc4[C@@](C)(O)[C@H]3C[C@@H]12 [tetracycline, Tetracycline]	Partial synergistic	0.75	
CC1(C)S[C@@H]2[C@H](NC(=O)[C@H](N)c3ccccc3)C(=O)N2[C@H]1C(=O)O [ampicillin, Ampicillin]	synergistic	0.375 and 0.38	
CC[C@H]1OC(=O)[C@H](C)[C@@H](O[C@H]2C[C@@](C)(OC)[C@@H](O)[C@H](C)O2)[C@H](C)[C@@H](O[C@@H]2O[C@H](C)C[C@H](N(C)C)[C@H]2O)[C@](C)(O)C[C@@H](C)C(=O)[C@H](C)[C@@H](O)[C@]1(C)O [erythromycin, Erythromycin]	additive or irrelevant	2.0	
Gentamycin	additive or irrelevant	1.0	
Cc1nnc(SCC2=C(C(=O)O)N3C(=O)[C@@H](NC(=O)Cn4cnnn4)[C@H]3SC2)s1 [cefazolin, Cefazolin]	Partial synergistic	0.75	
Nisin (ITSISLCTPGCKTGALMGCNMKTATCHCSIHVSK; also: lantibiotic: lanthionine rings and dehydro residues, not placed; UniProt P13068 24-57, looked up)	Partial synergistic		FICI (fractional inhibitory concentration index) [1]: 0.63; MIC in the presence of sublethal concentrations of IP compared with absence of IP [1]: higher
